Experimental findings from ChEMBL document CHEMBL5214926, “Recent contribution of medicinally active 2-aminothiophenes: A privileged scaffold for drug discovery” (Eur J Med Chem, 2022) are described below.

≈ marks a conversion by molar mass, not a printed value. Bounds are passed on as bounds.

One assay concerns Leishmania amazonensis. The assay can be described thus: Anti-promastigote activity against Leishmania amazonensis (IFLA/BR/67/PH8) assessed as promastigote growth inhibition incubated for 72 hrs by microscopic analysis. It is filed as functional, organism-based.
A further assay concerns NCI-H1299. The assay can be described thus: Cytotoxicity against human NCI-H1299 cells assessed as cell growth inhibition incubated for 48 hrs by SRB assay. It is filed as functional, cell-based. The note with it: NCI-H1299, 48 h. Background: Sulforhodamine B stains cellular protein and so reports cell mass.
A short description of assay [1]: Inhibition of CaCC (unknown origin) current potentiation. More on the design: species or system Homo sapiens.
The subject of assay [2] is HepG2. Briefly: Cytotoxicity against human HepG2 cells assessed as cell growth inhibition incubated for 48 hrs by MTT assay. It is filed as functional, cell-based. On the technique in general: Formazan colour is commonly taken as a measure of viable cells.
Assay [3] concerns MCF7. The assay can be described thus: Cytotoxicity against human MCF7 cells assessed as cell growth inhibition incubated for 48 hrs by MTT assay. It is filed as functional, cell-based. The following applies: MCF7, 48 h.
The test system of the next assay is MKN-45. Briefly: Antiproliferative activity against human MKN-45 cells assessed as cell growth inhibition by MTT assay.
A short description of assay [4]: Antiproliferative activity against human U-87 MG cells assessed as cell growth inhibition by MTT assay. It is filed as functional, cell-based, U-87MG ATCC.
In a further assay the test system is HT-29. The assay can be described thus: cells. The following applies: Homo sapiens.
The next assay relates to A549. Briefly: cells. The following applies: Homo sapiens.
A further assay deals with SMMC-7721. The assay can be described thus: Antiproliferative activity against human SMMC-7721 cells assessed as cell growth inhibition by MTT assay.
Another assay has as its system NCI-H460. Briefly: Antiproliferative activity against human NCI-H460 cells assessed as cell growth inhibition by MTT assay.
For assay [5], the system named is HepG2. Briefly: Cytotoxicity against human HepG2 cells assessed as cell growth inhibition incubated for 2 days by MTT assay. It is filed as functional, cell-based. The note with it: HepG2, 48 h.
Assay [6] deals with MCF7. Briefly: Cytotoxicity against human MCF7 cells assessed as cell growth inhibition incubated for 2 days by MTT assay. It is filed as functional, cell-based. The following applies: MCF7, 48 h.
The next assay deals with PC-3. Briefly: Cytotoxicity against human PC-3 cells assessed as cell growth inhibition incubated for 2 days by MTT assay. It is filed as functional, cell-based. The note with it: PC-3, 48 h.
Assay [7] has as its system Mycobacterium tuberculosis. The assay can be described thus: Antimycobacterial activity against Mycobacterium tuberculosis H37Ra incubated for 8 to 12 days by XTT reduction menadione assay. It is filed as functional. The following applies: time 8-12 day.
For assay [8], the system named is Staphylococcus aureus. The assay can be described thus: Antibacterial activity against Staphylococcus aureus NCIM 2010 assessed as bacterial growth inhibition incubated for 8 hrs by absorbance based assay. It is filed as functional.
The subject of assay [9] is Bacillus subtilis. The assay can be described thus: Antibacterial activity against Bacillus subtilis NCIM 2079 assessed as bacterial growth inhibition incubated for 8 hrs by absorbance based assay. It is filed as functional.
The test system of a further assay is Pseudomonas aeruginosa. The assay can be described thus: Antibacterial activity against Pseudomonas aeruginosa NCIM 2036 assessed as bacterial growth inhibition incubated for 8 hrs by absorbance based assay. It is filed as functional.
The test system of assay [10] is Staphylococcus aureus. The assay can be described thus: Antibacterial activity against Staphylococcus aureus NCIM 2010 assessed as reduction in bacterial growth incubated for 8 hrs by absorbance based assay. The following applies: NCIM 2010, 8 h. It is filed as functional, organism-based.
A further assay relates to Escherichia coli. The assay can be described thus: Antibacterial activity against Escherichia coli NCIM 2688 assessed as bacterial growth inhibition incubated for 8 hrs by absorbance based assay. It is filed as functional.
Assay [11] has as its system Bacillus subtilis. The assay can be described thus: Antibacterial activity against Bacillus subtilis NCIM 2079 assessed as reduction in bacterial growth incubated for 8 hrs by absorbance based assay. It is filed as functional, organism-based. The note with it: NCIM 2079, 8 h.
Where [12] appears, read: Leishmania amazonensis, IFLA/BR/67/PH8, 72 h.

Description for A549: Antiproliferative activity against human A549 cells assessed as cell growth inhibition by MTT assay
Description for HT-29: Antiproliferative activity against human HT-29 cells assessed as cell growth inhibition by MTT assay

Consider `CCOC(=O)c1c(Nc2c3ccc(Cl)cc3nc3ccc(OC)cc23)sc2c1CCCC2`, for which the values for the EC50 in the assay on Leishmania amazonensis and in the assay with Leishmania amazonensis (setting [12]) were 26.6 µM and 51.4 µM, respectively.
`N#Cc1c(NC(=O)CNc2n[nH]c3ncccc23)sc2c1CCCC2`: in the assay with NCI-H1299, the IC50 stood at 0.0125 µM.
Regarding `COC(=O)c1c(NC(=O)Cn2cc(CNC34CC5CC(CC(C5)C3)C4)nn2)sc2c1CCC(C)C2` (stereo not given), the IC50 in [1] was 5.4 µM.
As to `CC(=O)c1ccc(Nc2c(C(=O)/C=C/c3ccccc3)sc(/N=C/c3ccccc3)c2C#N)cc1`, the half-inhibitory concentration (IC50) came out at 19.1 µM in the assay on HepG2 [2] (Homo sapiens, HepG2, 48 h); 26.2 µM with HepG2 [2] (hepg2); 19.1 µM in the assay with MCF7 [3].
`N#Cc1c(N)sc(C(=O)Nc2ccc(Cl)cc2)c1-c1ccccc1`: the concentration for half-maximal inhibition (IC50) turned out to be 0.42 µM in the assay on MKN-45; 0.59 µM in assay [4]; 0.65 µM in the assay with HT-29; 0.7 µM with A549; 0.69 µM in the assay with SMMC-7721; 0.76 µM in the assay with NCI-H460.
With `CCOC(=O)c1c(NC(=O)/C=C/c2ccc(O)cc2)sc2c1CCCC2`, the IC50 with HepG2 [5] was determined as 8.3 µM; in the assay with MCF7 [6], 8.27 µM; in the assay on PC-3, 6.29 µM.
For `COC(=O)c1ccsc1NC(=O)N[C@@H](C(=O)N[C@@H]1C(=O)N2[C@@H]1SC(C)(C)[C@@H]2C(=O)O)c1ccc(O)cc1`, the MIC is greater than 50 µg/mL in [7]; 0.29 µg/mL (≈ 0.529 µM) in the assay with Staphylococcus aureus [8]; 0.32 µg/mL (≈ 0.583 µM) with Bacillus subtilis [9]; greater than 10 µg/mL in the assay on Pseudomonas aeruginosa; greater than 10 µg/mL with Escherichia coli. The EC50 with Staphylococcus aureus [10] and in the assay on Bacillus subtilis [11] was 0.15 µM in each case.
`COc1cccc2c1C(=O)c1c(O)c3c(c(O)c1C2=O)C[C@@](O)(C(=O)CO)C[C@@H]3O[C@H]1C[C@H](N)[C@H](O)[C@H](C)O1` [DOXORUBICIN]: in the assay on HepG2 [2] (Homo sapiens, HepG2, 48 h), the half-maximal inhibitory concentration (IC50) worked out at 4.17 µM.
As for `COC(=O)c1c(N)sc2c1CCC(C(C)(C)C)C2` (stereo not given), the IC50 in [1] was 4.6 µM.
Turning to `N#Cc1c(/N=C/c2c3ccccc3nc3ccccc23)sc2c1CCC2`, in the assay on Leishmania amazonensis (setting [12]), the EC50 is greater than 500 µM.
Consider `N#Cc1c(N)sc(C(=O)Nc2ccccc2)c1-c1ccccc1`, for which the IC50 in the assay with MKN-45 is 7.09 µM; in [4], 8.93 µM; in the assay on HT-29, 8.39 µM; in the assay on A549 it was 8.28 µM; in the assay on SMMC-7721 it was 5.09 µM; in the assay with NCI-H460, 9.62 µM.
For `COc1ccc(/C=N/NCC(=O)Nc2sc3c(c2C#N)CCCC3)cc1`, the 50% inhibitory concentration (IC50) in the assay with NCI-H1299 came to 18.5 µM.
For the molecule `Cc1cc(C)c2c(NCC(=O)Nc3sc4c(c3C#N)CCCC4)n[nH]c2n1`, in the assay on NCI-H1299, the IC50 stood at 13.7 µM.
On the same count and under the same terms, for `N#Cc1c(NC(=O)CN/N=C/c2cccc([N+](=O)[O-])c2)sc2c1CCCC2` the value was 18.5 µM.
Consider `CC(C)(C)C1CCc2c(sc(NC(=O)C3CCCO3)c2C(=O)O)C1` (stereo not given), for which the concentration for half-maximal inhibition (IC50) in [1] turned out to be 1.7 µM.
Turning to `CO[C@H]1/C=C/O[C@@]2(C)Oc3c(C)c(O)c4c(O)c(c(/C=N/N5CCN(C)CC5)c(O)c4c3C2=O)NC(=O)/C(C)=C\C=C\[C@H](C)[C@H](O)[C@@H](C)[C@@H](O)[C@@H](C)[C@H](OC(C)=O)[C@@H]1C` [RIFAMPIN], in assay [7], 0.042 µg/mL (≈ 0.051 µM) was the least that counted as inhibitory (MIC).
Turning to `CC1=C(C(=O)O)N2C(=O)[C@@H](NC(=O)[C@H](N)c3ccccc3)[C@H]2SC1` [CEPHALEXIN ANHYDROUS], the minimal inhibitory concentration (MIC) in the assay with Staphylococcus aureus [8] is 2.39 µg/mL (≈ 6.88 µM); with Bacillus subtilis [9], 1.87 µg/mL (≈ 5.38 µM); in the assay with Pseudomonas aeruginosa it was greater than 10 µg/mL; with Escherichia coli, 4.94 µg/mL (≈ 14.2 µM). The EC50 in the assay with Staphylococcus aureus [10] worked out at 0.77 µM; with Bacillus subtilis [11], 0.25 µM.
For `N#CCC(=O)Nc1sc(C(=O)Nc2ccc(Cl)cc2)c(-c2ccccc2)c1C#N`, the IC50 in the assay with MKN-45 stood at 0.59 µM; in assay [4] it was 0.86 µM; in the assay with HT-29, 0.86 µM; in the assay on A549, 1.4 µM; in the assay with SMMC-7721 it was 0.39 µM; in the assay on NCI-H460 it was 1.04 µM.
For `CC1(C)S[C@@H]2[C@H](NC(=O)[C@H](N)c3ccccc3)C(=O)N2[C@H]1C(=O)O` [AMPICILLIN], the MIC with Staphylococcus aureus [8] is 0.28 µg/mL (≈ 0.801 µM); in the assay on Bacillus subtilis [9] it was 0.28 µg/mL (≈ 0.801 µM); with Pseudomonas aeruginosa, greater than 10 µg/mL; in the assay on Escherichia coli, 0.88 µg/mL (≈ 2.52 µM). Also, the concentration for a half-maximal effect (EC50) in the assay on Staphylococcus aureus [10] and with Bacillus subtilis [11] was 0.15 µM each time.

As a reminder, the EC50 is the concentration needed to bring the measured effect to its halfway point. The IC50 is the midpoint of a concentration-inhibition curve. The MIC is the lowest concentration that inhibits growth of the organism.
